Measurements: PMC9527314, “Structural insights into the binding of zoledronic acid with RANKL via computational simulations” (Frontiers in Molecular Biosciences, 2022)

Target: T1, human RANKL trimer (Homo sapiens, UniProt O14788)
T1 construct: gene TNFSF11; recombinant human RANKL trimer protein from ACROBiosystems; homotrimer; amine-coupled to CM5 chip
T1 sequence (O14788 140-317 limits assumed): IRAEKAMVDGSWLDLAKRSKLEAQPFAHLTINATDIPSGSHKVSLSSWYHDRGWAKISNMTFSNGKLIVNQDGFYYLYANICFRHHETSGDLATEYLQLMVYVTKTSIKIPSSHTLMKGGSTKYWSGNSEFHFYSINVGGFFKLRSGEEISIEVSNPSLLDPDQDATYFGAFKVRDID
Assay: SPR (Biacore T200), RANKL immobilised on CM5 chip, steady-state fit
Assay type: binding

Kd: 228 µM
SMILES: O=P(O)(O)C(O)(Cn1ccnc1)P(=O)(O)O [Zoledronic acid]
